Where two headings read alike, the source gives them in different places.
Key:
HUVEC (FBS stimulated) = assay: HUVEC proliferation in 10% FBS; type: cell-based; settings: Homo sapiens, 72 h
Protocol: (§1) Each cell line was seeded in a 96-well tissue culture plate (Corning, NY) at a predetermined density in 180 µL complete medium, attached overnight and treated by compound for another 72 h. Then the medium was discarded and replaced with 10% CCK-8 (Dojindo, Kumamoto, Japan) in complete medium, then incubated the plates for another 2 h. The OD450 was measured with SpectraMAX 190 spectrophotometer (MDS, Sunnyvale, CA). A background absorbance of ODblank was subtracted from all wells.
In VEGF-induced HUVEC proliferation assay, the HUVECs suspended in 170 µL EGM-2 with 0.5% FBS were seeded and incubated overnight. After the cells attached, 10 µL 1 µg/ml recombinant human VEGF 165 (R&D systems, Minneapolis, MN) was added to each well together with 20 µl compound solutions prepared in EGM-2 with 0.5% FBS. The CCK-8 assay as above was used for determination of cell viability.

BGC-823 xenograft = assay: Xenograft efficacy study; type: in vivo, BALB/C nu/nu nude mice
GC16 xenograft = assay: Patient primary gastric tumor derived xenograft; type: in vivo, BALB/C nu/nu nude mice; settings: GC16, 25 mpk bid, p.o.
Protocol: (§2) In human primary tumor models, fresh human gastric tumor tissues were directly implanted into nonobese diabetic and severe combined immune-deficient (NOD-SCID) mice within 5 hours post-surgery with 5 mm^3 fragments to establish primary tumor xenograft models. […] Treatment began when tumor volume reached 100∼150 mm^3. The tumor measurement and operation protocol was the same as cell line derived tumor model.

GC318 xenograft = assay: Patient primary gastric tumor derived xenograft; type: in vivo, BALB/C nu/nu nude mice; settings: GC318, 25 mpk bid, p.o.
Protocol: as §2

GC46 xenograft = assay: Patient primary gastric tumor derived xenograft; type: in vivo, BALB/C nu/nu nude mice; settings: GC46, 25 mpk bid, p.o.
Protocol: as §2

[1] = test system: hepatocellular carcinoma cell lines; assay: Cell proliferation assay (CCK-8, 72 h); type: cell-based; settings: Homo sapiens, hepatocellular carcinoma cell line panel, read-out: overall mean IC50
Protocol: as §1

[2] = test system: gastric cancer cell lines; assay: Cell proliferation assay (CCK-8, 72 h); type: cell-based; settings: Homo sapiens, gastric cancer cell line panel, read-out: overall mean IC50
Protocol: as §1

[3] = test system: nasopharyngeal carcinoma cell lines; assay: Cell proliferation assay (CCK-8, 72 h); type: cell-based; settings: Homo sapiens, nasopharyngeal carcinoma cell line panel, read-out: overall mean IC50
Protocol: as §1

[4] = Dose range finding and toxicokinetic study; type: in vivo; settings: for MTD at 2 week / AUC(0-t): po
Protocol: Dose range finding and toxicokinetic study was carried out in rats and Beagle dogs based on in vitro metabolites identification. Wistar rats (male: 3, female 3 in each group, from Vital River, Beijing, China) were fasted overnight, and then received test articles as 0, 6.25, 50 and 100 mg/kg twice a day per oral gavage for a 14-day continuous regimen. Motility observation was applied on a daily bases to find the maximum tolerant dose for the animals. The animals were sacrificed on d14, and the following toxicology observation were carried out including body weight changes, clinical observation, gross necropsy, hematology chemistry and histopathology. On day 1 and day 14, blood samples were obtained via jugular vein puncture from all animals (if alive, using EDTA-K2 tubes). Samples were mixed gently and placed on crushed wet-ice until centrifugation, which was carried out immediately. The samples were centrifuged for approximately 15 minutes at 4°C 2,700 rpm. The resultant plasma was separated, transferred to uniquely labeled clear polypropylene tubes and frozen immediately over solid carbon dioxide (dry ice) until transferred to approximately −80°C. Each animal was bled at the following time points: approximately 5 min, 15 min, 30 min, 1, 2, 4, 8 and 24 hours post first dose on the specific day. The drug concentrations in the plasma were determined by LC-MS/MS. The pharmacokinetic analysis was performed using WinNonlin software (Version 5.2, Pharsight Corporation, CA, USA), and the pharmacokinetic parameters were calculated using a Non-compartmental model method.

CNE-2 xenograft = test system: CNE-2 xenograft
Text: The use and care of experimental animal was approved by Institutional Animal Care and Use Committee, Roche R&D Center (China). Tumor cells were inoculated into the right flank of BALB/C nu/nu female nude mice (5∼6 weeks, 16∼18 g, obtained from Sino-British SIPPR/BK Lab. Animal Ltd, Shanghai, China) at optimal density based on our in-house validation study. After the tumor was established and reached 100∼150 mm^3, the mice were randomized into ten mice per group and received treatment according to the schedule. The tumor growth was recorded three times a week with the measurement of length (L) and width (W) by caliper, and calculated as tumor volume (TV, mm^3) = 0.5*L*W*W (mm). […] The tumor regression of individual mouse was defined - the tumor volume at the end was less than the tumor volume when treatment was initiated.

HUVEC = HUVEC tube formation assay; type: cell-based, human
MGC-803 xenograft = assay: Xenograft efficacy study; type: in vivo, BALB/C nu/nu nude mice; settings: MGC-803, 25 mg/kg twice a day per oral gavage
[5] = Single dose pharmacokinetic (SDPK) study; type: in vivo; settings: for Oral BA: micronized API suspension; for clearance / Vd / half-life: plasma; for clearance / Vd: iv, 5 mg/kg, single dose; for Vd: read-out: Vdss; for half-life: iv 5 mg/kg
Protocol: Blood samples were collected by retro-orbital puncture at pre-dose and 0.033, 0.083, 0.25,0.5, 1, 2, 4, 6, 8, and 24 hours post-dose. The plasma samples and the dose formulation were stored at −20°C until bioanalysis. The data acquisition and control system were created using Analyst 1.4 software from ABI Inc. The concentrations in plasma below the limit of quantitation (LOQ = 1 ng/mL) were designated as zero. […] For rat, dog and monkey SDPK, the blood samples were collected from jugular vein puncture.

Which IC50 (HUVEC (FBS stimulated)) does the source give for `COc1ccc2c(c1)C(c1ccccc1Cl)=Nc1c(n[nH]c1C)N2` [R1498] here?
The IC50 was 2.06 µM.

And the “Final TGI%” value (BGC-823 xenograft; BGC-823, 25 mg/kg twice a day per oral gavage, day of study termination (Table S2))?
The value was 94%.

And the Body weight changes% (BGC-823 xenograft; BGC-823, 25 mg/kg twice a day per oral gavage, before vs after treatment)?
The Body weight changes% was 2%.

What about the “Tumor Regression” value (BGC-823 xenograft; BGC-823, 25 mg/kg twice a day per oral gavage, mice with regression/group) of the same compound?
The value was 0/10.

What about the “Final TGI%” value (BGC-823 xenograft; BGC-823, 6.25 mpk, bid, PO) of the same compound?
The value was 78%.

What about the “Final TGI%” value (BGC-823 xenograft; BGC-823, 12.5 mpk, bid, PO) of the same compound?
Its value is 88%.

What about the “Final TGI%” value (BGC-823 xenograft; BGC-823, 25 mpk, bid, PO (Table S3)) of the same compound?
The value was 94%.

And the Regression (GC16 xenograft)?
Its Regression is 3/10.

And the TGI% (GC16 xenograft)?
The TGI% was 89.3%.

What about the Regression (GC318 xenograft) of the same compound?
The Regression was 1/10.

What about the TGI% (GC318 xenograft) of the same compound?
Its TGI% is 91.6%.

And the Regression (GC46 xenograft)?
The Regression was 2/10.

And the TGI% (GC46 xenograft)?
Its TGI% is 73.6%.

And the IC50 [1]?
The IC50 was 7.81 µM.

What about the IC50 [2] of the same compound?
The IC50 was 7.55 µM.

And the IC50 [3]?
The IC50 was 30.1 µM.

And the “dose at which body weight loss began” value ([4]; female rats)?
The value was 12.5 mg/kg.

What about the “MTD AUC / ED90 AUC” value ([4]; female, Wistar, rat, in vivo) of the same compound?
Its value is 8.1.

And the MTD at 2 week ([4]; female, Wistar, rat, in vivo)?
Its MTD at 2 week is 50 mg/kg.

What about the AUC(0-t) ([4]; female, Wistar, rat, in vivo, 50 mg/kg) of the same compound?
The AUC(0-t) was 211 µg·h/mL.

And the “dose at which body weight loss began” value ([4]; male rats)?
The value was 100 mg/kg.

What about the MTD at 2 week ([4]; male, Wistar, rat, in vivo) of the same compound?
Its MTD at 2 week is greater than 100 mg/kg.

And the AUC(0-t) ([4]; male, Wistar, rat, in vivo, 100 mg/kg)?
The AUC(0-t) was greater than 155 µg·h/mL.

What about the Body weight changes% (CNE-2 xenograft; CNE-2, 25 mg/kg twice a day per oral gavage, before vs after treatment) of the same compound?
Its Body weight changes% is 16.3%.

And the “Tumor Regression” value (CNE-2 xenograft; CNE-2, 25 mg/kg twice a day per oral gavage, mice with regression/group)?
Its value is 0/10.

And the “Final TGI%” value (CNE-2 xenograft; CNE-2, 25 mg/kg twice-daily per oral gavage, day of study termination)?
The value was 90%.

And the “HUVEC proliferation under tube formation treatment condition” value (HUVEC; 8 hr exposure, data not shown)?
Its value is “didn’t affect HUVEC proliferation”.

And the tube formation (HUVEC; HUVEC on Matrigel, 3 µM, 8 h, vs DMSO)?
Its tube formation is “formed fewer intact tube meshes”.

And the “Final TGI%” value (MGC-803 xenograft; day of study termination)?
The value was 99%.

What about the Body weight changes% (MGC-803 xenograft; before vs after treatment) of the same compound?
Its Body weight changes% is 14%.

And the “Tumor Regression” value (MGC-803 xenograft; mice with regression/group)?
Its value is 5/10.

And the “Oral BA” value ([5]; Dog, 50-100 mg/kg)?
Its value is 32-45 (50-100 mg/kg) %.

What about the “Oral BA” value ([5]; Monkey, 12.5 mg/kg) of the same compound?
The value was 4 (12.5 mg/kg) %.

And the “Oral BA” value ([5]; Rat, 25-400 mg/kg)?
The value was 9-44 (25-400 mg/kg) %.

What about the clearance ([5]; Dog) of the same compound?
Its clearance is 1.9 mL/min/kg.

What about the Vd ([5]; Dog) of the same compound?
The Vd was 2.7 L/kg.

And the clearance ([5]; Monkey)?
Its clearance is 25.3 mL/min/kg.

What about the Vd ([5]; Monkey) of the same compound?
The Vd was 2.1 L/kg.

What about the clearance ([5]; Rat) of the same compound?
Its clearance is 5.6 mL/min/kg.

And the Vd ([5]; Rat)?
The Vd was 1.6 L/kg.

And the half-life ([5]; Dog)?
Its half-life is 16.8 h.

And the half-life ([5]; Monkey)?
Its half-life is 1.5 h.

What about the half-life ([5]; Rat) of the same compound?
The half-life was 3.2 h.
